Results published in US9427402B2, “Preparation for improving solubility of poorly soluble drug” (Shionogi & Co. Ltd., priority 2010, dated 2016).
Converted amounts (≈) assume the structure as drawn. Where two headings read alike, the source gives them in different places.

Experiment: Solubility evaluation of drugs (buffer solutions, 37° C., HPLC)
Assay type: physicochemical
Details: for solubility in words: acidic / neutral solvents, conclusion from Table 1; for solubility at 3 h: thermodynamic from solid
Method: A solvent was added to a drug, and ultrasonic irradiation treatment was performed on the resulting solution. The solution was agitated for 3 hours at 37° C. After 3 hours, the sample was filtered with a 0.45 μm filter, and the concentration of the drug in the filtrate was measured by a HPLC method. The solvents used were 100 mM of a citrate buffer solution (pH 4), 100 mM of a phosphate buffer (pH 7) and 100 mM of carbonic acid buffer solution (pH 9).

[1] = aqueous buffer, 100 mM citrate buffer solution (pH 4), 37° C., 3 hours, read-out: Solubility pH 4
[2] = aqueous buffer, 100 mM phosphate buffer (pH 7), 37° C., 3 hours, read-out: Solubility pH 7

| Structure (SMILES) | solubility in words | solubility at 3 h (aqueous buffer, 100 mM carbonic acid buffer solution (pH 9), 37° C., 3 hours, read-out: Solubility pH 9) [µg/mL] | solubility at 3 h [1] [µg/mL] | solubility at 3 h [2] [µg/mL] | solubility at 3 h (buffer solution, 37 °C, pH 7, aqueous buffer, solvent with a pH of 7 or less, read-out: solubility in a solvent with a pH of 7 or less) [µg/mL] |
| --- | --- | --- | --- | --- | --- |
| CCCCCCO[C@@H](C)c1cccc(-c2csc(NC(=O)c3cc(Cl)c(/C=C(\C)C(=O)O)c(Cl)c3)n2)c1OC [Compound C-3B, (S)-(E)-3-(2,6-dichloro-4-{4-[3-(1-hexyloxyethyl)-2-methyloxyphenyl]thiazole 2-ylcarbamoyl}phenyl)-2-methylacrylic acid] | poorly soluble in an acidic and a neutral solvents | 7.7 (≈ 13 µM) | ≤ 0.0004 | ≤ 0.0004 | ≤ 0.0004 |
| COc1ccc2c(c1)c(CC(=O)O)c(C)n2C(=O)c1ccc(Cl)cc1 [Indomethacin, indomethacin, reference compound] | poorly soluble in an acidic solvent |  | 0.5 (≈ 1.4 µM) | 25 (≈ 69.9 µM) |  |
